Reference: article PMC3844262 (Journal of immunology (Baltimore, Md. : 1950), 2013)

Columns and labels:
[1] = tested on: CD8+ T cells from acute day 8 LCMV-infected mice; format: cell-based, C57BL/6 (B6) mice
[2] = tested on: GP34-A11R cross-reactive T cell lines (TCL #1, #3, #7); format: cell-based, C57BL/6 (B6) mice
H-2K^b = H-2K^b (Mus musculus, UniProt P01901); format: binding, murine
H-2K^b, sequence (P01901 whole entry, looked up): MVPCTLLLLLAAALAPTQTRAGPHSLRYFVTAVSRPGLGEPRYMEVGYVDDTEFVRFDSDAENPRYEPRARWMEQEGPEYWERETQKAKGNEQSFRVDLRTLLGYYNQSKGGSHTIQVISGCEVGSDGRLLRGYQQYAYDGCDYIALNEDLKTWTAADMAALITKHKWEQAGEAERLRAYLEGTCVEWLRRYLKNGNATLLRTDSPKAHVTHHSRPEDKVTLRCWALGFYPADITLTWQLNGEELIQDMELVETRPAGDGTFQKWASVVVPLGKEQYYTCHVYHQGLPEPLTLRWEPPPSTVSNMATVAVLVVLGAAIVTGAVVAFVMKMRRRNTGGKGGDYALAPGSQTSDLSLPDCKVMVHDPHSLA

Row | Sequence | IFNγ production ex vivo, acute LCMV-infected mice (OVA hybrid experiment) [1] | CD8+ T cells responding (IFNγ), TCL #7 [2] | Tm of K^b-peptide complex (H-2K^b) | IFNγ response, % of total CD8+ T cells [1]
1 | SIINFAAL [OVA-AA] | not observed | not cross-reactive |  | 
2 | SIINFEKL [OVA] |  | does not cross-react | 51.5 °C | 
3 | SIYRYYGL |  |  |  | not observed
